We go through three molecules from patent US20250228821A1 (priority 2022, published 2025).

The conditions of data set [1]: single dose 32 mg ruboxistaurin, healthy subjects (FIG. 5); cited from earlier work.
Data set [2] is described as follows: Blood/brain barrier penetration, pharmacokinetic study in rats. As to conditions: rat, 1 mg/kg intravenously. From the text: Blood samples were collected from 3 animals at 0.25, 1-, and 4-hours post-dose. Brain samples were collected from 9 other rats, 3 each at 0.25, 1-, and 4-hours post-dose. Brain samples were weighted and homogenized with phosphate buffered saline.

For data set [3], the system named is rats treated with dextroamphetamine. The data set can be described thus: Ultrasonic vocalizations in rats induced by dextroamphetamine. The note with it: rats, 10, 30, 100 mg/kg IP 60 minutes before D-amphetamine 2.5 mg/kg IP (FIG. 9). The data set is classed as in vivo, male Wistar rats. The procedure:
98 male Wistar rats were acclimated to the testing facility and handled daily (10 min/day) for 7 days prior to initiating the experiment. […] Rats were placed in white Plexiglas boxes (50×50×50 cm) and videotaped for 10 minutes to acclimate them to the test apparatus. Ultrasonic vocalizations (USV) were recorded with a microphone mounted 45 cm above the open field box to establish baseline, non-treatment related USV responses (50-kHz calls) in each rat. The next day, rats were injected with saline (1 mL/kg body weight, IP) and immediately placed into open field-testing boxes. USVs were recorded for 10 min.

For data set [4] the following is noted: in vivo; cited from earlier work.
For data set [5] the following is noted: human, microsomes, 1 μM.
The next data set relates to protein kinase C. The note with it: cited from earlier work.

Take “(12E,32E,7S)-7-((methylamino)methyl)-22,25-dihydro-11H,21H,31H-6-oxa-1,3(3,1)-diindola-2(3,4)-pyrrolacyclononaphane-22,25-dione hydrochloride [N-desmethyl ruboxistaurin]”: the “half-life (t½)” value in data set [1] is 23.9 h. Besides, the results for the “Mean brain” value in data set [2] (0.25 hr), in data set [2] (1 hr) and in data set [2] (4 hr) were 21.0 ng/g, 19.5 ng/g and 13.3 ng/g, respectively. The “Mean plasma” value is 73.3 ng/mL in data set [2] (0.25 hr), 43.5 ng/mL in data set [2] (1 hr) and 11.8 ng/mL in data set [2] (4 hr). Also, the “effect on ultrasonic appetitive vocalizations (50-kHz calls)” value in data set [3] was “able to reduce ultrasonic appetitive vocalizations”.

Take `[Li]` [lithium]: the elimination half-life entry in data set [4] is on record as “about 18 hours”.

Consider `CN(C)C[C@@H]1CCn2cc(c3ccccc32)C2=C(C(=O)NC2=O)c2cn(c3ccccc23)CCO1` [Ruboxistaurin], for which, in data set [5], the “increase of compound levels at 15 minutes by CYP3A4 inhibitor troleandomycin” value was determined as 23 fold. In addition, the “half-life (t½)” value in data set [1] was 5.25 h. The “potency of protein kinase C inhibition, ruboxistaurin vs. N-desmethyl ruboxistaurin” value in the data set with protein kinase C was “equipotent”.
